The record followed here is EPA's CvTdb concentration-time database.

Series [1] has as its system Rat. In words: concentration in brain after dosing. The note with it: 24 h; dosed: Perfluorohexane-1-sulphonic acid – potassium salt; 16 mg/kg; oral; Female; Harlan Sprague Dawley.
Series [2] deals with Rat. In words: concentration in plasma after dosing. The note with it: 20 min; dosed: Pyridine; 10 mg/kg; oral; Female; Harlan Sprague-Dawley.
Series [3] relates to Rat. As to the kind of experiment: concentration in plasma after dosing. The note with it: dosed: Pyridine, 5 mg/kg, oral, Male, F344.
Series [4] relates to Rat. In words: concentration in plasma after dosing. The note with it: dosed: Methyleugenol, 37 mg/kg, iv, Male, F344.
The subject of series [5] is Rat. In words: concentration in plasma after dosing. The note with it: dosed: Methyleugenol, 37 mg/kg, oral, Male, F344/N.
Series [6] relates to Rat. As to the kind of experiment: concentration in plasma after dosing. The note with it: dosed: 2-Hydroxy-4-methoxybenzophenone, 100 mg/kg, oral, Female, F344.
Series [7] deals with Rat. As to the kind of experiment: concentration in plasma after dosing. The note with it: 12 h; dosed: Primidone; 80 mg/kg; oral; Female; F344.

Regarding `O=S(=O)([O-])C(F)(F)C(F)(F)C(F)(F)C(F)(F)C(F)(F)C(F)(F)F.[K+]` [Perfluorohexane-1-sulphonic acid – potassium salt], in series [1], the concentration in brain stood at 743 ng/g.

As to `c1ccncc1` [Pyridine], the concentration in plasma in series [2] came out at 2070 ng/mL; in series [3] (1 h), 2530 ng/mL; in series [3] (8 h) it was 1390 ng/mL.

Regarding `C=CCc1ccc(OC)c(OC)c1` [Methyleugenol], the concentration in plasma in series [4] (5 min) stood at 28800 ng/mL; in series [4] (3 h), 226 ng/mL; in series [5] (1.5 h) it was 148 ng/mL; in series [5] (8 h), 8.19 ng/mL.

Consider `O=C(c1ccccc1)c1ccc(O)cc1O` [2,4-Dihydroxybenzophenone], for which the concentration in plasma was found to be 255 ng/mL in series [6] (0.5 h) and 46.6 ng/mL in series [6] (5 h).

With `CCC1(c2ccccc2)C(=O)NCNC1=O` [Primidone], in series [7], the concentration in plasma was found to be 15800 ng/mL.
